From US11851445B2, “Compounds and uses thereof” (Foghorn Therapeutics Inc., priority 2020, dated 2023)
“Also recorded” adds a separate entry of the source.

Tests used:
SYO1 cells [1] = assay: Apoptosis assay, Annexin V-FITC; assay type: cell-based, human; conditions: 8 days; compared to DMSO controls
Experimental: (§1) Procedure: SYO1 cells were treated for 8 or 13 days with DMSO, a BRD9 degrader (Compound 1) at 200 nM or 1 μM, or an E3 ligase binder (lenalidomide) at 200 nM. Compounds were refreshed every 5 days. Cell cycle analysis was performed using the Click-iT™ Plus EdU Flow Cytometry Assay (Invitrogen). The apoptosis assay was performed using the Annexin V-FITC Apoptosis Detection Kit (Sigma A9210). Assays were performed according to the manufacturer's protocol.

[2] = system: synovial sarcoma cell lines (SYO1, Yamato, HS-SY-II, and ASKA); assay: Growth of synovial sarcoma cell lines (Example 2: confluency, crystal violet, colonies); assay type: cell-based; conditions: FIGS. 4, 5, 6
Experimental: (§2) Cells were treated with DMSO or the BRD9 degrader, Compound 1, at indicated concentrations, and proliferation was monitored from day 7 to day 14 by measuring confluency over time using an IncuCyte live cell analysis system (FIG. 4). Growth medium and compounds were refreshed every 3-4 days.
(§3) Cells were seeded into 12-well plates and treated with DMSO, 1 μM BRD9 inhibitor, Compound 2 (also known as BI-7273, see Martin et al, J Med Chem. 59(10):4462-4475 (2016); see structure of compound 2 below), or 1 μM BRD9 degrader, Compound 1.
(§4) The number of cells was optimized for each cell line. Growth medium and compounds were refreshed every 3-5 days. SYO1, Yamato, A549, 293T and HS-SY-II cells were fixed and stained at day 11. ASKA cells were fixed and stained at day 23. Staining was done by incubation with crystal violet solution (0.5 g Crystal Violet, 27 ml 37% Formaldehyde, 100 mL 10×PBS, 10 mL Methanol, 863 dH20 to 1 L) for 30 min followed by 3× washes with water and drying the plates for at least 24 h at room temperature. Subsequently plates were scanned on an Odyssey CLx Imaging system (FIG. 5).
(§5) Cells were seeded into 96-well ultra-low cluster plate (Costar, #7007) in 200 μL complete media and treated at day 2 with DMSO, Staurosporin, or BRD9 degrader, Compound 1, at indicated doses (FIG. 2C). Media and compounds were changed every 5 d and cell colonies were imaged at day 14.

[3] = system: synovial sarcoma cell lines (SYO1, HS-SY-II, and ASKA); assay: Growth of synovial sarcoma cell lines, crystal violet, day 14 (Example 3); assay type: cell-based
Experimental: (§6) Procedure: Cells were seeded into 6-well or 12-well plates and were treated daily with a BRD9 degrader (Compound 1), a bromo-domain BRD9 binder (Compound 2), E3 ligase binder (lenalidomide), DMSO, or staurosporin (positive control for cell killing), at indicated concentrations. The number of cells was optimized for each cell line. Growth media was refreshed every 5 days. By day 14, medium was removed, cells were washed with PBS, and stained using 500 μL of 0.005% (w/v) crystal violet solution in 25% (v/v) methanol for at least 1 hour at room temperature. Subsequently plates were scanned on an Odyssey CLx Imaging system.

[4] = system: non-synovial control cancer cell lines (RD, HCT116, and Calu6); assay: Growth of non-synovial control cancer cell lines, crystal violet, day 14 (Example 3); assay type: cell-based; conditions: FIG. 8
Experimental: as §6

SYO1 cells [5] = assay: Cell cycle analysis, Click-iT Plus EdU flow cytometry; assay type: cell-based, human; conditions: 200 nM or 1 μM, 8 or 13 days; compared to DMSO and lenalidomide
Experimental: as §1

[6] = system: non-synovial control cancer cell lines (293T, A549, G401); assay: Growth of non-synovial control cancer cell lines (Example 2); assay type: cell-based; conditions: FIGS. 4, 5, 6
Experimental: as §2, §3, §4, §5

[7] = system: SYO-1 human biphasic synovial sarcoma tumor; assay: SYO-1 xenograft tumor growth in NOD SCID mice; assay type: in vivo; conditions: 1 mg/kg, i.p., daily, 3 weeks; FIG. 14
Experimental: Method: NOD SCID mice (Beijing Anikeeper Biotech, Beijing) were inoculated subcutaneously on the right flank with the single cell suspension of SYO-1 human biphasic synovial sarcoma tumor cells (5×106) in 100 μL Dulbecco's Modified Eagle Medium (DMEM) with 10% fetal bovine serum (FBS). The mice were randomized into either control group [10% dimethyl sulfoxide (DMSO), 40% polyethylene glycol (PEG400) and 50% water], or treatment group D1 when the mean tumor size reached about 117 mm^3. Mice were dosed daily through intraperitoneal (i.p.) route over the course of 3 weeks. All dose volumes were adjusted by body weights in terms of mg/kg.

BRD9 = target: T1, BRD9 (Homo sapiens, UniProt Q9H8M2); assay: BRD9 degradation in synovial sarcoma tumor in vivo, western blot (Example 12); parameters: degradation endogenous BRD9 protein in two synovial sarcoma cell lines; endogenous in cells; host or cells: SYO1 (SYO-1) synovial sarcoma cells; conditions: 1 mg/kg, i.p., 4 weeks; tumors 8, 72 and 168 hours post last dose; FIG. 15
T1 sequence (Q9H8M2 1-597): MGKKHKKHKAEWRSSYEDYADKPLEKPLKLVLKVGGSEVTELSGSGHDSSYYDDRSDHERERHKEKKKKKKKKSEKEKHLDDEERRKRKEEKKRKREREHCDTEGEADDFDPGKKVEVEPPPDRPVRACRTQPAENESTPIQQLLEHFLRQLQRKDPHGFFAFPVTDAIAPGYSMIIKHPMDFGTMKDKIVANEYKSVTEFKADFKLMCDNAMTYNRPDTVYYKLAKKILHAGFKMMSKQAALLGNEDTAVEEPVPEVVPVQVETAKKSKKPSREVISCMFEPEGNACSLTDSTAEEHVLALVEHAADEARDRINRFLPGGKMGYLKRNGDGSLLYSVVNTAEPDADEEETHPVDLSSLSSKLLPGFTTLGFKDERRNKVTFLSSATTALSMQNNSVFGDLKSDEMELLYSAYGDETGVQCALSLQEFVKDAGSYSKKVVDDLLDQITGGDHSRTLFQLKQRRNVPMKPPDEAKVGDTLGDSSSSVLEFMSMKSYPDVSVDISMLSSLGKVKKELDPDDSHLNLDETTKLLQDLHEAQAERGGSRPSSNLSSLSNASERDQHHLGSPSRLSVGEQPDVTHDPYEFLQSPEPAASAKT
Experimental: Method: Mice were treated with D1, 1 mg/kg, i.p. for 4 weeks. Mice were then euthanized, and tumors were collected at 8 hours, 72 hours, and 168 hours post last dose. Tumors were lysed with 1× RIPA lysis buffer (Boston BioProducts, BP-115D) with protease and phosphatase protein inhibitor (Roche Applied Science #04906837001 & 05892791001). Equal amounts of lysate (30 μg) were loaded in 4-12% Bis-Tris Midi Protein Gels in 1×MOPS buffer; samples ran at 120 V for 120 minutes. Protein was transferred to membrane with TransBlot at 250 mA for 150 minutes, and then membranes were blocked with Odyssey blocking buffer for 1 hour at room temperature. Membranes were hybridized overnight in cold room with primary antibodies. Images acquired using Li-COR imaging system (Li-COR Biotechnology, Lincoln, Nebr.).

SMILES	numbers of early- and late-apoptotic cells (SYO1 cells [1])	growth of the cells [2]	growth of the cells ([3]; SYO1, HS-SY-II, ASKA, day 14, FIG. 7)	growth inhibition compared with the other treatments ([3]; all synovial cell lines)	growth of the cells [4]	numbers of cells in the S-phase of the cell cycle (SYO1 cells [5])	growth of the cells [6]	tumor growth [7]	BRD9 level in tumor (BRD9)
COc1cc(-c2cn(C)c(=O)c3cnccc23)cc(OC)c1CN(C)CC(=O)NCCOCCOCCNc1cccc2c1C(=O)N(C1CCC(=O)NC1=O)C2=O (stereo not drawn) [Compound 1, dBRD9]	increased numbers of early- and late-apoptotic cells	inhibition of the growth of the cells	inhibition of the growth of the cells	most significant growth inhibition	did not result in inhibition of the growth	reduced numbers of cells in the S-phase	does not result in inhibition of the growth		
COc1cc(-c2cn(C)c(=O)c3cnc(N4CCC4)cc23)cc(OC)c1CN1CCC(CN2CCC3(CC2)CN(c2ccc4c(c2)C(=O)N(C2CCC(=O)NC2=O)C4)C3)CC1 (racemic) [Compound D1, 3-[6-(7-[[1-([4-[6-(azetidin-1-yl)-2-methyl-1-oxo-2,7-naphthyridin-4-yl]-2,6-dimethoxyphenyl]methyl)piperidin-4-yl]methyl]-2,7-diazaspiro[3.5]nonan-2-yl)-1-oxo-3H-isoindol-2-yl]piperidine-2,6-dione]								tumor growth inhibition	complete degradation of BRD9 target up to 168 hours after dose; also recorded: BRD9 inhibition
